The values that follow come from paper PMC7615751, “Anionic liposome formulation for oral delivery of thuricin CD, a potential antimicrobial peptide therapeutic” (International journal of pharmaceutics, 2024).

The conditions of data set [1]: FaSSIF vs PBS; ref Ryan et al., 2021; cited from earlier work. The source says: The pH in FaSSIF is 6.5, and the pI of Trn α and Trn β is close to 4, so the thuricin CD peptides should both be slightly negatively charged in this solution (ExPASy, 2022), helping their dissolution in this medium. Also, it has been previously reported that lacticin 3147, a two peptide bacteriocin with similar ...

The subject of data set [2] is L. monocytogenes ATCC 1916. In words: Bioactivity of dissolved thuricin CD (MIC50, growth curves at OD 590 nm). Particulars: 24 h, 37 °C. In kind it is cell-based.
Description: For this study, L. monocytogenes was used as an indicator strain. The minimum inhibitory concentration MIC50 was determined based on the protocol previously described by Mathur et al. ([Mathur, et al., 2017]). MIC50 was established as the concentration of peptides that inhibited 50 % of growth of L. monocytogenes ATCC 1916 ([Rea, 2010]).
Briefly, 1 mg/mL stock solutions of freeze-dried Trnα and Trnβ resuspended in 70 % IPA 0.1 % TFA in water were diluted in sterile PBS to a final concentration of 100 μg/mL (dissolved thuricin). For all the experiments in this, and the following sections, a 1:1 M ratio of Trn α: Trn β was used. The corresponding volumes of each peptide to reach 250 nM of each peptide (0.69 μg/mL Trn α + 0.72 μg/mL Trn β), 500 nM of each peptide (1.38 μg/mL Trn α + 1.43 μg/mL Trn β), 1 μM of each peptide (2.76 μg/mL Trn α + 2.86 μg/mL Trn β), and 2 μM of each peptide (5.53 μg/mL Trn α + 5.72 μg/mL Trn β) in the final well volume were added in triplicate to a 96 well plate. […] L. monocytogenes ATCC 1916 was grown in BHI broth shaking overnight at 37 °C. 150 μL of 10^5 CFU/mL bacterial culture was added to the wells with sample. Blanks were set up in triplicate with only PBS and media as well as a control containing buffer and bacterial culture. The plate was incubated in a Biotek ELx808 Ultra microplate reader at 37 °C for 24 h. Readings were taken every 30 min at 590 nm. […]
For data set [3], the system named is L. monocytogenes ATCC 1916. In words: Biological activity of Trn αβ loaded liposomes vs free thuricin CD in acetate buffer. The format is cell-based. Particulars: 1.25 and 2.50 μg/mL of each peptide, 37 °C, 24 h, OD 590 nm, triplicate. As for the experimental part:
The activity of Trn αβ liposomes was evaluated following the methodology previously described for thuricin CD. Briefly, the liposome suspension was filtered with a 0.45 μm PES sterile filter. Different volumes of the sterile liposome suspension were added to reach final concentrations of Trn α and Trn β of 1.25 and 2.50 μg/mL in each well. Samples were tested in triplicate. […] 150 μL of 10^5 CFU/mL L. monocytogenes ATCC 1916 culture was added to the wells with sample. Blanks were set up in triplicate with only media, the corresponding blank liposome suspension volume, and PBS. Controls contained inoculated media and PBS. The plate was incubated in a BioTek ELx808 Ultra microplate reader at 37 °C for 24 h. Readings were taken every 30 min at 590 nm. The same procedure was followed for free thuricin (freeze dried thuricin powder directly suspended in acetate buffer).

For data set [4], the system named is L. monocytogenes ATCC 1916. The data set is described as follows: Solution behaviour / activity of free thuricin CD in FaSSGF without enzymes. The format is cell-based. As to the method: (§1) Fasted state simulated intestinal fluid (FaSSIF) and fasted state simulated gastric fluid (FaSSGF) were prepared using Biorelevant FaS-SIF/FaSSGF powder following the manufacturer’s instructions. Briefly, for FaSSIF, 0.21 g NaOH, 1.72 g sodium phosphate monobasic and 3.10 g NaCl were diluted in 400 mL distilled water. The solution was stirred until dissolved. The pH was then adjusted to 6.5 with 0.1 M HCl. 1.12 g FaSSIF powder was added and finally, the volume was topped up to 500 mL. For FaSSGF, 2 g NaCl was dissolved in 900 mL distilled water. The pH was adjusted to 1.6 with 1 M HCl.
Trn α and Trn β solutions at concentrations of 0.5 mg/mL in FaSSGF/FaSSIF were suspended directly from lyophilised powder (free thuricin). Further dilutions were carried out to reach concentrations of 2 times, 5 times and 10 times the MIC50 in the final volume to be used for the experiment. The suspensions were distributed in different microtubes and incubated at 37 °C, 300 rpm in an incubator for 0.5 h. An aliquot of each concentration was taken, and filter sterilized with a 0.2 μm PES filter. […] The plate was incubated in a Biotek ELx808 Ultra microplate reader at 37 °C for 24 h at a wavelength of 590 nm. Readings were taken every 30 min for 24 h with the plate shaken mildly before each one. The readings collected from those samples were considered as time 0. […]

Data set [5] concerns the target T1, pepsin (Sus scrofa, UniProt P00791).
T1 construct: purchased Sigma Aldrich Ireland Ltd
In words: Enzymatic degradation of dissolved thuricin CD by pepsin (residual antibacterial activity). In kind it is in vitro ADME. Particulars: 5.6 μg/mL Trn α + 5.8 μg/mL Trn β. As to the method: Trn α and Trn β stock solutions (1 mg/mL in 70 % IPA 0.1 % TFA in water) were filter sterilized and diluted to a final concentration of 100 μg/mL in sterile PBS. Pepsin activity was evaluated beforehand according to the haemoglobin assay, based on the principle that haemoglobin in water produces tyrosine peptides soluble in trichloroacetic acid (TCA) when pepsin is applied ([Brodkorb, 2019]). The activity units (AU or μmol/min), defined as the quantity of the enzyme that converts one micromole of substrate per minute, were determined before this test. Pepsin was suspended in cold 0.01 M HCl pH 2 reaching 824 activity units per mL. Trn α and Trn β were added to the same well of a 96-well plate in triplicate to give a final concentration of 5.6 μg/mL and 5.8 μg/mL respectively. […] 25 μL of pepsin solution was also added to each of the wells. This gave a final pepsin concentration/activity of 1.2 mg/mL or 98.8 AU/mL, which is the approximate concentration of enzyme present in the human stomach ([Liu, 2015]). Thuricin alone and pepsin alone were included as control samples with the bacterial culture. Blanks were set up in triplicate with PBS, 0.01 M HCl, and media only (BHI). […] The plate was incubated in a BioTek ELx808 Ultra microplate reader at 37 °C for 24 h at a wavelength of 590 nm. Readings were taken every 30 min for 24 h with the plate shaken mildly before each reading.

The target in data set [6] is T1, pepsin. In words: Biological activity after incubation in FaSSGF with pepsin. The format is in vitro ADME. Particulars: dissolved Trn α and β, 1.2 mg/mL pepsin in FaSSGF, 30 min, 37 °C; double the MIC50; L. monocytogenes growth curve 24 h. As to the method:
The activity of αβ liposome suspension and dissolved αβ peptides after exposing both to FaSSGF with pepsin and FaSSIF without pancreatin was analysed. No pancreatin was added to FaSSIF because it inhibitied L. monocytogenes growth itself. Trn αβ loaded liposome suspension or dissolved thuricin (thuricin powder in 70 % IPA 0.1 % TFA in water and further diluted in acetate buffer) + pepsin in FaSSGF were prepared as described in the previous section. Control samples with acetate buffer + pepsin in FaSSGF were also prepared.
After 30 min incubation, pepsin was deactivated by heating the samples at 70 °C for 10 min. The volume necessary to reach a concentration of double the MIC50 of thuricin peptides was added to a 96-well plate. The wells were topped to 50 μL with PBS. 150 μL of 10^5 CFU/mL bacterial cell culture (L. monocytogenes) was added to each well. Blanks were set with media and control samples. The plate was incubated in a BioTek ELx808 Ultra microplate reader at 37 °C for 24 h at a wavelength of 590 nm. Readings were taken every 30 min for 24 h with the plate shaken mildly before each reading.

The target in the next data set is T2, trypsin (Sus scrofa, UniProt P00761).
T2 construct: purchased Sigma Aldrich Ireland Ltd
In words: Enzymatic degradation of dissolved thuricin CD by trypsin (residual antibacterial activity). Particulars: 4.4 μg/mL Trn α + 4.4 μg/mL Trn β; 19.3 μg/ml trypsin; 3 h, 37 °C; then growth curve 24 h, OD 590 nm; triplicate. In kind it is in vitro ADME. As for the experimental part:
(§2) Trn α and Trn β stock solutions (1 mg/mL in 70 % IPA 0.1 % TFA in water) were filter sterilized and diluted to a final concentration of 100 μg/mL in sterile PBS. Pepsin activity was evaluated beforehand according to the haemoglobin assay, based on the principle that haemoglobin in water produces tyrosine peptides soluble in trichloroacetic acid (TCA) when pepsin is applied ([Brodkorb, 2019]). The activity units (AU or μmol/min), defined as the quantity of the enzyme that converts one micromole of substrate per minute, were determined before this test. Pepsin was suspended in cold 0.01 M HCl pH 2 reaching 824 activity units per mL. Trn α and Trn β were added to the same well of a 96-well plate in triplicate to give a final concentration of 5.6 μg/mL and 5.8 μg/mL respectively. […] The plate was incubated in a BioTek ELx808 Ultra microplate reader at 37 °C for 24 h at a wavelength of 590 nm. Readings were taken every 30 min for 24 h with the plate shaken mildly before each reading.
(§3) A similar procedure was followed for trypsin and chymotrypsin, but different concentrations were used, and incubation time was 3 h. […] Trypsin activity units were determined by a previously established assay based on the principle that p-toluene-sulfonyl-l-arginine methyl ester (TAME) in water produces p-toluene-sulfonyl-L-arginine plus methanol when trypsin is applied ([Brodkorb, 2019]). […]

The conditions of data set [7]: cell-free supernatants; ref Rea, 2010; cited from earlier work. The source says: However, because of their peptide nature, bacteriocins are susceptible to degradation, aggregation, and precipitation in the body, and can show low solubility and poor permeability ([Flynn et al., 2021]). Previous reports have evaluated the heat and pH stability of thuricin CD cell-free supernatants. […] Activity was also maintained in a pH range of 2 to 9 ([Rea, 2010]). Neither quantitative nor qualitative data on the solubility of thuricin in biorel ...

Data set [8] has as its system L. monocytogenes ATCC 1916. In words: Solution behaviour / activity of free thuricin CD in FaSSIF without enzymes. In kind it is cell-based. Particulars: free thuricin suspended from solid in FaSSIF pH 6.5, 37 °C, 0.2 μm filtered, growth curve 24 h, triplicate. As to the method:
as §1
Trn α and Trn β solutions at concentrations of 0.5 mg/mL in FaSSGF/FaSSIF were suspended directly from lyophilised powder (free thuricin). Further dilutions were carried out to reach concentrations of 2 times, 5 times and 10 times the MIC50 in the final volume to be used for the experiment. The suspensions were distributed in different microtubes and incubated at 37 °C, 300 rpm in an incubator for 0.5 h. An aliquot of each concentration was taken, and filter sterilized with a 0.2 μm PES filter. 50 μL of each sterile solution was transferred to a 96-well microtiter plate in triplicate. Each well was filled with 150 μL of a L. monocytogenes culture at an OD of 0.1. A control was set with 50 μL of FaSSGF/FaSSIF and 150 μL culture. The plate was incubated in a Biotek ELx808 Ultra microplate reader at 37 °C for 24 h at a wavelength of 590 nm. Readings were taken every 30 min for 24 h with the plate shaken mildly before each one. The readings collected from those samples were considered as time 0. In the meantime, the microtubes were put back in the incubator with reduced shaking. After 1, 4 and 24 h a new aliquot was taken, and the same protocol was followed for activity testing.

For a further data set, the system named is Caco-2 cells. The data set is described as follows: Presto blue cytotoxicity assay. The format is cell-based. As to conditions: 5 μg/mL Trn α + 5 μg/mL Trn β, 24 h, 37 °C, absorbance 570 nm. As for the experimental part:
The biocompatibility of Trn αβ liposome suspension and dissolved thuricin CD with intestinal epithelial cells were tested. Caco-2 cells were grown in high glucose Dulbecco’s modified Eagle’s medium supplemented with 10 % fetal bovine serum, 1 % L-Glutamine, 1 % pen-strep, and 1 % non-essential amino acids at 37 °C, with 5 % CO2 and 95 % relative humidity. Approximately 10,000 cells were seeded per well in a 96-well plate. The plate was incubated overnight to ensure the cells adhered to the wells. The media was removed from the wells and filter-sterilized dissolved thuricin CD and Trn αβ liposome suspension samples at a final concentration of 5 μg/mL of each peptide were added 1:1 (v/v) with fresh media. Control wells were included by adding blank liposomes and just media to the cells. The plate was incubated for 24 h at 37 °C, with 5 % CO2 and 95 % relative humidity. The media was removed from the wells, 10 μL Presto blue +90 μL fresh media was added to each well and left incubating for 60 min. Finally, the absorbances of the solutions in the plate were read at 570 nm and plotted for all samples.

For the next data set, the target named is T3, α-chymotrypsin (Bos taurus, UniProt P00766).
T3 construct: purchased Sigma Aldrich Ireland Ltd
The data set is described as follows: Enzymatic degradation of dissolved thuricin CD by α-chymotrypsin (residual antibacterial activity). Particulars: 4.4 μg/mL Trn α + 4.4 μg/mL Trn β; 19.3 μg/ml α-chymotrypsin; 3 h, 37 °C; then growth curve 24 h, OD 590 nm; triplicate. In kind it is in vitro ADME. As for the experimental part: as §2, §3

T1 sequence (P00791 60-385): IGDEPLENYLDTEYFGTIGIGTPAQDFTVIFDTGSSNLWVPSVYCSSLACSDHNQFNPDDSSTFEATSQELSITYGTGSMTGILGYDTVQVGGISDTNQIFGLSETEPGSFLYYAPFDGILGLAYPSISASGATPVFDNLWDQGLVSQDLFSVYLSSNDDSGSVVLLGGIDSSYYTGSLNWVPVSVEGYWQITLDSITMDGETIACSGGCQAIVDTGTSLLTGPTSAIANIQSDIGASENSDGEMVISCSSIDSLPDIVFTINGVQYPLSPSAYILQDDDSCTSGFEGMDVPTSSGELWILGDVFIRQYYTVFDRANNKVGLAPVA
T2 sequence (P00761 9-231): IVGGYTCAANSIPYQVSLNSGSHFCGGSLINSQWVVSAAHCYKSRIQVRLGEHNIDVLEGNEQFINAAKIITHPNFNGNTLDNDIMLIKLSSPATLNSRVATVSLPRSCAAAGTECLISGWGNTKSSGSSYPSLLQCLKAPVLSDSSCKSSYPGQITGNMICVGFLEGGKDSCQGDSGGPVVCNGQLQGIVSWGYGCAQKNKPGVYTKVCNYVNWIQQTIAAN

For lacticin 3147, the “solubility in FaSSIF” value in data set [1] is on record as “improved solubility in FaSSIF compared to PBS”.

In the case of thuricin CD, the “effect on bacterial growth” value in [2] (0.25 μM of each peptide) is given as “could not significantly inhibit bacterial growth”. The “inhibition of bacterial growth” value in [2] (0.5 μM of each peptide, 1:1 M ratio) was “approximately 50%”. The “activity of lyophilised peptides directly suspended in acetate buffer” value in [3] is given as “do not demonstrate any activity”. The “activity of peptides pre-dissolved in 70 % IPA 0.1 % TFA in water and diluted in FaSSGF” value in data set [4] (2, 5 and 10 times the MIC50, 1:1 molar ratio, FaSSGF pH 1.6 (Figure S3)) is on record as “retained thuricin CD activity”. In [4] (free thuricin suspended from solid in FaSSGF pH 1.6, 37 °C, x2, x5, x10 MIC50, 0, 1, 4, 24 h, 0.2 μm filtered, growth curve 24 h, triplicate), the “activity after addition of lyophilised powder to FaSSGF” value is recorded as “no activity was detected”. Also, at pepsin [5] (pepsin 1.2 mg/mL (98.8 AU/mL), 0.01 M HCl pH 2/PBS, 1.5 h, 37 °C, 70 rpm, then growth curve 24 h, OD 590 nm, triplicate), the “activity against L. monocytogenes ATCC 1916 after exposure to pepsin” value is recorded as “deactivated”. Besides, the “time for which bacterial growth was inhibited, thuricin alone (no enzyme)” value on pepsin [5] (positive control without pepsin, incubated 1.5 h at 37 °C before culture, growth curve 24 h) was around 17 h. Moreover, on pepsin [6], the “activity after exposure to pepsin in FaSSGF” value is “completely lost activity”. Also, the “activity against L. monocytogenes ATCC 1916 after exposure to trypsin” value on trypsin is given as “retained its activity”. In addition, in [7], the “heat stability at 85 °C” value is reported as “stable”, the “heat stability at 90 °C” value is on record as “reducing its activity” and the “heat stability at 100 °C” value was “complete activity loss”. Also, in [8] (all time points 0–24 h), the “activity after addition of lyophilised powder to FaSSIF, five times the MIC50” value is recorded as “activity is observed” and the “activity after addition of lyophilised powder to FaSSIF, ten times the MIC50” value is listed as “activity is observed”. Also, the “activity after addition of lyophilised powder to FaSSIF, double the MIC50” value in [8] (time points 0, 1, 4, 24 h) was “no activity is observed”. For the same substance, the “cytotoxicity: absorbance compared to the control group of living cells” value in the data set on Caco-2 cells is on record as “none of the samples exhibited any significant difference in absorbance”. Also, on α-chymotrypsin, the “activity against L. monocytogenes ATCC 1916 after exposure to α-chymotrypsin” value is “growth comparable to the control”.
